pIC50: −log10 of the molar value. Several values for one entry are separate records, joined by “and”; a condition that tells them apart may be missing. Equal entries are not always repeated. Where two headings read alike, the source gives them in different places.
Legend:
[1] = test system: voltage-gated sodium channel (site 1, [3H]Saxitoxin binding); design: species or system rat; on % inhibition: test concentration or dose not given here
[2] = test system: Male Sprague-Dawley rats; details: rat, in vivo; further: test concentration or dose not given here

CC(C)(C)C(O)Cn1c(=N)n(Cc2ccccc2)c2ccccc21.Cl (centres unmarked) [Compound 26]
% inhibition [1]: 17%

CC(C)(C)c1ccc(Cn2c(=N)n(CC(O)COc3ccccc3)c3ccccc32)cc1.Cl (centres unmarked) [Compound 12]
% inhibition [1]: 59% | pIC50 [1]: 4.47

Cl.Cn1c(=N)n(CC(O)C23CC4CC(CC(C4)C2)C3)c2ccccc21 (centres unmarked) [Compound 23]
% inhibition [1]: 15%

Cl.N=c1n(CCN2CCCCC2)c2ccccc2n1CC(O)c1cccc2ccccc12 (centres unmarked) [Compound 32]
% inhibition [1]: 20%

C=CCn1c(=N)n(CC(O)COc2ccccc2)c2ccccc21.Cl (centres unmarked) [Compound 41]
% inhibition [1]: 25%

Cc1ccc(Cn2c(=N)n(CC(O)COc3ccc(Cl)cc3)c3ccccc32)cc1.Cl (centres unmarked) [Compound 52]
% inhibition [1]: 37%

CC(C)(C)C(O)Cn1c(=N)n(CCN2CCCCC2)c2ccccc21.Cl (racemic) [Compound 69]
% inhibition [1]: 18%

Cl.N=c1n(CCN2CCCCC2)c2ccccc2n1CC(O)COc1ccc(Cl)cc1 (racemic) [Compound 40]
% inhibition [1]: 24%

Cl.N=c1n(CCN2CCOCC2)c2ccccc2n1CC(O)c1ccco1 (racemic) [Compound 25]
% inhibition [1]: 16%

Cl.N=c1n(CCN2CCCCC2)c2ccccc2n1CC(O)c1ccccc1 (centres unmarked) [Compound 30]
% inhibition [1]: 18%

Br.CCCCCCCCCCCn1c(=N)n(CC(O)COc2ccccc2)c2ccccc21 (racemic) [Compound 74]
% inhibition [1]: 33% | pIC50 [1]: 3.93

CCN(CC)CCn1c(=N)n(CC(O)c2ccc(OC)c(OC)c2)c2ccccc21.Cl (racemic) [Compound 31]
% inhibition [1]: 19%

Cl.N=c1n(CCN2CCOCC2)c2ccccc2n1CC(O)c1cccs1 (centres unmarked) [Compound 16]
% inhibition [1]: 17%

Br.N=c1n(Cc2ccccc2)c2ccccc2n1CC(O)COc1ccccc1 (centres unmarked) [Compound 3, 1-benzyl-2-imino-3-(2-hydroxy-3-phenoxypropyl)benzimidazole hydrobromide]
% inhibition [1]: 52% | pIC50 [1]: 4.68 | Average % MPE 5 minutes ([2]; hydrobromide): 76 % MPE and 100 % MPE

Cl.Cn1c(=N)n(CC(O)c2ccccc2)c2ccccc21 (centres unmarked) [Compound 65]
% inhibition [1]: — (key: —: A dash (-) indicates less than 10% inhibition was observed in this test)

CCn1c(=N)n(CC(O)c2cccs2)c2ccccc21.Cl (centres unmarked) [Compound 17]
% inhibition [1]: 11%

C=CCn1c(=N)n(CC(O)c2ccc(OCC)cc2)c2ccccc21.Cl (centres unmarked) [Compound 49]
% inhibition [1]: 32%

CCN(CC)CCn1c(=N)n(CC(O)c2ccc(C)cc2)c2ccccc21.Cl (centres unmarked) [Compound 28]
% inhibition [1]: 17%

CC(O)Cn1c(=N)n(Cc2ccccc2)c2ccccc21.Cl (centres unmarked) [Compound 24]
% inhibition [1]: 16%

CCCCn1c(=N)n(CC(O)COc2ccccc2)c2ccccc21.Cl (racemic) [Compound 8]
% inhibition [1]: 41% | pIC50 [1]: 4.06 | Average % MPE 5 minutes [2]: 100 % MPE

Cl.Cn1c(=N)n(CC(O)c2ccc(Cl)cc2)c2ccccc21 (centres unmarked) [Compound 54]
% inhibition [1]: — (key: —: A dash (-) indicates less than 10% inhibition was observed in this test)

CCCCn1c(=N)n(CC(O)c2ccccc2)c2ccccc21.Cl (centres unmarked) [Compound 18]
% inhibition [1]: 11%

Cl.N=c1n(Cc2ccc(Cl)cc2)c2ccccc2n1CC(O)c1ccco1 (racemic) [Compound 68]
% inhibition [1]: — (key: —: A dash (-) indicates less than 10% inhibition was observed in this test)

CCN(CC)CCn1c(=N)n(CC(O)COc2ccc(Cl)cc2)c2ccccc21.Cl (racemic) [Compound 56]
% inhibition [1]: — (key: —: A dash (-) indicates less than 10% inhibition was observed in this test)

C=CCn1c(=N)n(CC(O)COc2ccc(Cl)cc2)c2ccccc21.Cl (racemic) [Compound 46]
% inhibition [1]: 29%

CC(C)(C)C(O)Cn1c(=N)n(Cc2ccc(Cl)cc2)c2ccccc21.Cl (racemic) [Compound 59]
% inhibition [1]: — (key: —: A dash (-) indicates less than 10% inhibition was observed in this test)

CCn1c(=N)n(CC(O)COc2ccc(Cl)cc2)c2ccccc21.Cl (racemic) [Compound 21]
% inhibition [1]: 13%

CCCn1c(=N)n(CC(O)COc2ccccc2)c2ccccc21.Cl (centres unmarked) [Compound 20]
% inhibition [1]: 12%

Cl.N=c1n(CCN2CCCCC2)c2ccccc2n1CC(O)c1cccs1 (centres unmarked) [Compound 38]
% inhibition [1]: 22%

Cl.N=c1n(Cc2ccccc2)c2ccccc2n1CC(O)c1ccc(Cl)c(Cl)c1 (racemic) [Compound 2]
% inhibition [1]: 46% | pIC50 [1]: 4.68 | Average % MPE 5 minutes [2]: 100 % MPE | Average % MPE Day 4 [2]: 1 % MPE

Br.N=c1n(Cc2ccccc2)c2ccccc2n1CC(O)COCc1ccccc1 (centres unmarked) [Compound 71]
% inhibition [1]: 34% | pIC50 [1]: 4.52 | Average % MPE 5 minutes [2]: 100 % MPE | Average % MPE Day 4 [2]: 2 % MPE

Br.N=c1n(CCN(Cc2ccccc2)Cc2ccccc2)c2ccccc2n1CC(O)COc1ccccc1 (racemic) [Compound 76]
% inhibition [1]: — (key: —: A dash (-) indicates less than 10% inhibition was observed in this test) | pIC50 [1]: 4.00

Cl.Cn1c(=N)n(CC(O)c2cccc3ccccc23)c2ccccc21 (centres unmarked) [Compound 58]
% inhibition [1]: — (key: —: A dash (-) indicates less than 10% inhibition was observed in this test)

CCN(CC)CCn1c(=N)n(CC(O)COc2ccccc2)c2ccccc21.Cl (racemic) [Compound 55]
% inhibition [1]: — (key: —: A dash (-) indicates less than 10% inhibition was observed in this test)

Br.N=c1n(Cc2ccccc2)c2ccccc2n1CC(O)Cc1ccccc1 (racemic) [Compound 77]
% inhibition [1]: 27% | pIC50 [1]: 4.09

CCCn1c(=N)n(CC(O)c2ccc(C)cc2)c2ccccc21.Cl (centres unmarked) [Compound 60]
% inhibition [1]: — (key: —: A dash (-) indicates less than 10% inhibition was observed in this test)

C=CCn1c(=N)n(CC(O)c2ccc(C)cc2)c2ccccc21.Cl (racemic) [Compound 50]
% inhibition [1]: 33%

Cl.N=c1n(CCN2CCOCC2)c2ccccc2n1CC(O)COc1ccc(Cl)cc1 (racemic) [Compound 35]
% inhibition [1]: 20%

Cl.Cn1c(=N)n(CC(O)COc2ccccc2)c2ccccc21 (racemic) [Compound 44]
% inhibition [1]: 27%

CC(O)Cn1c(=N)n(C)c2ccccc21.Cl (centres unmarked) [Compound 66]
% inhibition [1]: — (key: —: A dash (-) indicates less than 10% inhibition was observed in this test)

Cl.N=c1n(Cc2ccc(Cl)cc2)c2ccccc2n1CC(O)COc1ccc(Cl)cc1 (centres unmarked) [Compound 15]
% inhibition [1]: 11%

Br.N=c1n(Cc2cccc3ccccc23)c2ccccc2n1CC(O)COc1ccccc1 (racemic) [Compound 73]
% inhibition [1]: — (key: —: A dash (-) indicates less than 10% inhibition was observed in this test) | pIC50 [1]: 3.97

Cl.Cn1c(=N)n(CC(O)c2ccc(Cl)c(Cl)c2)c2ccccc21 (centres unmarked) [Compound 13]
% inhibition [1]: 46% | pIC50 [1]: 3.63

CCCn1c(=N)n(CC(C)O)c2ccccc21.Cl (centres unmarked) [Compound 61]
% inhibition [1]: — (key: —: A dash (-) indicates less than 10% inhibition was observed in this test)

COc1ccc(C(O)Cn2c(=N)n(Cc3ccccc3)c3ccccc32)cc1.Cl (racemic) [Compound 47]
% inhibition [1]: 32%

CCCn1c(=N)n(CC(O)COc2ccc(Cl)cc2)c2ccccc21.Cl (centres unmarked) [Compound 29]
% inhibition [1]: 18%

CN(C)CCn1c(=N)n(CC(O)c2ccc(Cl)c(Cl)c2)c2ccccc21.Cl (racemic) [Compound 51]
% inhibition [1]: 36%

Br.CCCCCCCCn1c(=N)n(CC(O)COc2ccccc2)c2ccccc21 (centres unmarked) [Compound 72]
% inhibition [1]: 20% | pIC50 [1]: 4.18

Cl.N=c1n(Cc2ccccc2)c2ccccc2n1CC(O)c1ccco1 (centres unmarked) [Compound 67]
% inhibition [1]: — (key: —: A dash (-) indicates less than 10% inhibition was observed in this test)

Cl.N=c1n(CCN2CCOCC2)c2ccccc2n1CC(O)COc1ccccc1 (racemic) [Compound 33]
% inhibition [1]: 20%

Cl.N=c1n(Cc2ccccc2)c2ccccc2n1CC(O)c1ccc(Br)cc1 (centres unmarked) [Compound 63]
% inhibition [1]: — (key: —: A dash (-) indicates less than 10% inhibition was observed in this test)

CCOc1ccc(C(O)Cn2c(=N)n(CCN3CCCCC3)c3ccccc32)cc1.Cl (racemic) [Compound 37]
% inhibition [1]: 22%

COc1ccc(C(O)Cn2c(=N)n(CCN3CCCCC3)c3ccccc32)cc1.Cl (centres unmarked) [Compound 45]
% inhibition [1]: 28%

Cl.Cn1c(=N)n(CC(O)c2cccs2)c2ccccc21 (centres unmarked) [Compound 34]
% inhibition [1]: 20%

Cl.N=c1n(Cc2ccc(Cl)cc2)c2ccccc2n1CC(O)COc1ccccc1 (centres unmarked) [Compound 14]
% inhibition [1]: 16%

C=CCn1c(=N)n(CC(O)c2ccc(Cl)cc2)c2ccccc21.Cl (racemic) [Compound 64]
% inhibition [1]: — (key: —: A dash (-) indicates less than 10% inhibition was observed in this test)

Cl.Cn1c(=N)n(CC(O)COc2ccc(Cl)cc2)c2ccccc21 (racemic) [Compound 57]
% inhibition [1]: — (key: —: A dash (-) indicates less than 10% inhibition was observed in this test)

CCCn1c(=N)n(CC(O)c2ccc(Cl)cc2)c2ccccc21.Cl (racemic) [Compound 48]
% inhibition [1]: 32%

COc1ccc(C(O)Cn2c(=N)n(C)c3ccccc32)cc1.Cl (racemic) [Compound 27]
% inhibition [1]: 17%

C=CCn1c(=N)n(CC(O)C(C)(C)C)c2ccccc21.Cl (racemic) [Compound 36]
% inhibition [1]: 22%

C=CCn1c(=N)n(CC(O)c2ccc(Br)cc2)c2ccccc21.Cl (racemic) [Compound 39]
% inhibition [1]: 24%

CCCn1c(=N)n(CC(O)c2ccccc2)c2ccccc21.Cl (centres unmarked) [Compound 43]
% inhibition [1]: 26%

CCN(CC)CCn1c(=N)n(CC(O)c2ccc(Cl)c(Cl)c2)c2ccccc21.Cl (centres unmarked) [Compound 42]
% inhibition [1]: 25%

CCn1c(=N)n(CC(O)COc2ccccc2)c2ccccc21.Cl (centres unmarked) [Compound 19]
% inhibition [1]: 11%

CCCCn1c(=N)n(CC(O)c2ccc(Br)cc2)c2ccccc21.Cl (racemic) [Compound 62]
% inhibition [1]: — (key: —: A dash (-) indicates less than 10% inhibition was observed in this test)

CCCCn1c(=N)n(CC(O)c2ccc(Cl)cc2)c2ccccc21.Cl (centres unmarked) [Compound 53]
% inhibition [1]: — (key: —: A dash (-) indicates less than 10% inhibition was observed in this test)
